Columns and labels:
A549 cells = experiment: MTT cytotoxicity assay, A549; assay type: cell-based, human
Excerpt: (§1) According to our previous data and data published by other research groups, chemical transformations of bile acids can greatly improve their antitumor potential. Thus, as the first step of evaluation of the biological activities of our novel DCA derivatives we assessed their effects on tumor cell viability. The cytotoxicity of the compounds was investigated with respect to a panel of cultured cell lines, including human duodenal HuTu-80, hepatocellular HepG2, cervical KB-3-1 and lung A549 carcinomas as well as murine macrophage RAW264.7 and non-transformed human fibroblasts hFF3 by MTT assay.
(§2) Human duodenal carcinoma HuTu-80 cells, human hepatocellular carcinoma HepG2 cells, human cervical carcinoma KB-3-1 cells, human lung carcinoma A549 cells were obtained from the Russian Cell Culture Collection (Institute of Cytology, RAS, St. Petersburg, Russia). Non-transformed human fibroblasts hFF3 were kindly provided by Dr. Olga Koval (Institute of Chemical Biology and Fundamental Medicine, SB RAS, Novosibirsk, Russia). RAW264.7 macrophages were kindly provided by Prof. Dr. Dmitry Kuprash (Engelhardt Institute of Molecular Biology, RAS, Moscow, Russia). The cells were cultured in DMEM (Sigma-Aldrich Inc., St. Louis, MO, USA) supplemented with 10% (v/v) heat-inactivated fetal bovine serum (FBS) (BioloT, St. Petersburg, Russia), 100 U/mL penicillin (ICN Biomedicals Inc., Costa Mesa, CA, USA), 100 µg/mL streptomycin and 0.25 µg/mL amphotericin; additionally, in the case of RAW264.7 cells, concentration of glucose in the medium was increased up to 4.5 mg/mL. The cells were incubated at 37 °C in 5% CO2 and 95% air (hereafter referred to as standard conditions). DCA derivatives were dissolved in DMSO to yield stock solutions of 10 mmol/L and stored at −20 °C prior to use.
(§3) Cells were seeded in triplicate in 96-well plates at a density of 5 × 10^3 (HuTu-80, HepG2, KB-3-1, hFF3), 10^4 (A549) or 5 × 10^4 (RAW264.7) cells per well. Cells were incubated under standard conditions for 24 h and then they were treated with varying doses of investigated derivatives for subsequent 24 h. Then 10 µL of MTT solution (5 mg/mL) were added to each wells and cells were incubated for an additional 2 h under standard conditions. The crystals of formazan forming within live cells were solubilized with DMSO and the absorbance was measured in a Multiscan RC plate reader (Thermo LabSystems, Helsinki, Finland) at a test and reference wavelengths of 570 nm and 620 nm, respectively. […] To perform SAR analysis, hierarchical clustering of compounds based on their IC50 values was fulfilled with Euclidean distance by using the Morpheus tool (https://software.broadinstitute.org/morpheus/), a platform designed for visualization and analysis of data in a matrix format. Heatmap, containing compounds’ SI values, were constructed by using the Excel 2010 software (Microsoft, Redmond, WA, USA). In order to reveal whether ROS participate in the induction of cell death by compound 9, HuTu-80 cells cultured in 96-well plate were pretreated by NAC at 2 mM for 1 h. Thereafter, the medium was replaced by fresh medium with compound 9 at 8 µM and the cells were incubated with subsequent 24 h under standard conditions. After this time period, the curves of cytotoxicity of compound 9 in the presence or absence of NAC were compared.

HuTu-80 cells [1] = experiment: Autophagy detection (MDC staining); assay type: cell-based, human; details: 8 µM, 24 h, versus control
Excerpt: It is known that bile acids can induce cell death independently of apoptosis by activation of autophagy. Autophagy is a regulated lysosome-dependent pathway involved in the degradation of damaged and obsolete intracellular components. During autophagy, these components are isolated by a bilayer membrane resulting in autophagosome formation. Autophagosomes than fuse with lysosomes that leads to enzymatic degradation of their contents. During prolonged and strong stress, cells can autophagocytize up to a half of their cytoplasm that leads to a collapse of cell functions and, as a result, cell death. Monodansylcadaverin (MDC) is an autofluorescent amine that specifically accumulates within autophagic vacuoles and, therefore, can be used as a marker of autophagy.
HuTu-80 cells were seeded in 6-well plates at a density of 5 × 10^5 cells per well and incubated for 24 h under standard conditions. Then the cells were treated by compound 9 at 8 µM for 24 h, collected by trypsinization, washed with PBS, suspended with 50 µM of MDC at 37 °C for 15 min and analyzed using NovoCyte Flow Cytometer (ACEA Biosciences Inc.). In order to evaluate the type of autophagy (cytoprotective or cytodestructive), HuTu-80 cells were seeded in 96-well plate at a density of 5 × 10^3 cells/well for 24 h followed by co-treatment with compound 9 at 8 µM and chloroquine, an autophagy inhibitor, at 50 µM for 24 h. […]

HuTu-80 cells [2] = experiment: Mitochondrial membrane potential (JC-1); assay type: cell-based, human; details: 8 µM, control 18.7%
Experimental: Next, in order to identify whether the compound 9 induces apoptotic cell death by triggering mitochondrial dysfunction, we analyzed its effect on mitochondrial membrane potential (Δψm) in HuTu-80 cells by using fluorescent cationic JC-1 dye (Figure 2B).
The mitochondrial-specific cationic dye JC-1 (Molecular Probes, Invitrogen, Carlsbad, CA, USA) accumulating in the mitochondria by potential-dependent manner was used to detect the effect of compound 9 on ∆ψM. Briefly, HuTu-80 cells were seeded in 6-well plates at a density of 5 × 10^5 cells/well for 24 h. Then cells were treated by compound 9 at 8 µM for 6, 18 or 24 h, collected by trypsinization, washed with PBS, and JC-1 (5 µg/mL) was added to the cells. After 30 min of incubation at 37 °C, the cells were centrifuged, washed with PBS and analyzed using NovoCyte Flow Cytometer (ACEA Biosciences Inc.).

[3] = system: NO synthesis by IFNγ-activated RAW264.7 cells; experiment: Inhibition of NO production by stimulated macrophages (Griess); assay type: cell-based, murine; details: Mus musculus, RAW264.7, 24 h, read-out: IC50NO
Experimental: RAW264.7 cells were seeded in triplicate in 96-well plates at a density of 5 × 10^4 cells/well and incubated under standard conditions for 24 h. The cells were treated with 20 ng/mL of murine recombinant IFNγ (GIBCO, Gaithersburg, MD, USA), with or without (control) compounds at various concentrations for 24 h. The level of NO production was evaluated by determining the nitrite concentration in culture medium with a Griess Reagent System (Promega, Madison, WI, USA). The IC50^NO value was calculated as the derivative concentration required to decrease NO production to 50% of the non-treated control.

HuTu-80 cells [4] = experiment: cells; assay type: cell-based
Excerpt: as §1, §2, §3

Structure (SMILES): COC(=O)CC[C@@H](C)[C@H]1CC[C@H]2[C@@H]3CC[C@@H]4CC(O)(CNCCCO)CC[C@]4(C)[C@H]3CC(=O)[C@]12C (stereo partly drawn) [Compound 9, Methyl 3-hydroxy-3-((3-hydroxypropylamino)methyl)-12-oxo-5β-cholan-24-oate]
- IC50 (A549 cells; Homo sapiens, A549, MTT, 24 h, read-out: IC50 A549 (lung)): 29 ± 3.5 µM
- Selectivity index A549 (A549 cells; ratio IC50 hFF3 / IC50 A549): 1.1
- intensity of MDC-associated fluorescence (HuTu-80 cells [1]): significantly higher than in control
- cells with collapsed membrane potential (Low MMP) (HuTu-80 cells [2]; 6 h): 38.2%
- cells with collapsed membrane potential (Low MMP) (HuTu-80 cells [2]; 18 h): 68.6%
- cells with collapsed membrane potential (Low MMP) (HuTu-80 cells [2]; 24 h): 78.8%
- IC50 [3]: > 10 µM
- IC50 (HuTu-80 cells [4]; Homo sapiens, HuTu80, MTT, 24 h, read-out: IC50 HuTu-80 (duodenum)): 4 ± 0.5 µM
- Selectivity index HuTu-80 (HuTu-80 cells [4]; ratio IC50 hFF3 / IC50 HuTu-80): 8.3

Source: PMC6681416, “Novel Derivatives of Deoxycholic Acid Bearing Linear Aliphatic Diamine and Aminoalcohol Moieties and their Cyclic Analogs at the C3 Position: Synthesis and Evaluation of Their In Vitro Antitumor Potential” (Molecules, 2019)
